How the values were obtained:
[1] = system: peritoneal macrophages isolated from EAE mice; test: In vitro effect on LPS+IFN-γ-induced inflammatory mediators in macrophages from saline-treated EAE mice; type: cell-based; conditions: for inhibition of NO release: 72 hours after LPS+IFN-γ; for NOS2 expression (real-time PCR): normalized to 18S rRNA, fold change vs control
Protocol: FIG. 5. In vitro effects of COG compounds on LPS and IFN-γ-induced production of inflammatory mediators in cultured peritoneal macrophages isolated from EAE mice. Conditioned medium with or without COG 133 or COG 112 was collected 45 hours after immunogen exposure for analysis of TNF-α (A) and IL-6 (B), or 72 hours after inflammatory stimulation for measurement of nitrite (C). Level of NOS2 expression was assessed by quantitative real-time PCR (D). NOS2 expression was first normalized by the endogenous control (18S rRNA) and then expressed as fold change compared to control group. Statistical analysis was performed by ANOVA and significance was shown as *(p<0.05) and **(p<0.001).
We then examined the ability of COG 112 (SEQ ID NO: 5) and COG 133 (SEQ ID NO: 1) to inhibit the in vitro release of NO, TNF-α and IL-6 using macrophages obtained from saline-treated EAE mice on dpi 35. Conditioned medium with or without COG 133 or COG 112 was collected 45 hours after immunogen (LPS+IFN-γ) exposure for analysis of TNF-α and IL-6, or 72 hours after stimulation for measurement of nitrite. […] Levels of NOS2 expression were quantified by real-time PCR. NOS2 expression was first normalized by the endogenous control (18S rRNA) and then expressed as fold change compared to control group.

[2] = system: myelin oligodendrocyte glycoprotein (MOG)-induced experimental autoimmune encephalomyelitis (EAE) model; test: MOG-induced EAE model of multiple sclerosis, treatment after disease onset; type: in vivo, C57BL/6J mice; conditions: for maximal severity of disability / progress of the disease (clinical score) / mice exhibiting complete remission: 1 mg/kg i.p. daily from first CS≥2; for burden of disability (area under curve of clinical score): 1 mg/kg i.p., data not shown; for demyelination and infiltration of peripheral mononuclear cells in spinal cord: Luxol Fast Blue and eosin staining; for mice exhibiting complete remission: dpi 35, saline control 22%
Protocol: FIG. 1. […] (B) Percentage of animals in remission. Statistical analysis was conducted by ANOVA comparing the CS after day 18, which was defined as the recovery phase. FIG. 2. Representative histopathology of EAE in mice treated with COG 112 or saline control. 5 μm thick sections were stained with Luxol fast blue and eosin to reveal demyelination and peripheral infiltrates. The left panels show the pathological changes in spinal cord from cervical (A), thoracic (B) and lumbar (C) segments of a saline-treated control animal. Demyelination is shown as loss of blue staining in white matter and peripheral infiltrates are stained with purple particles. Panels D, E and F show the corresponding segments of a COG 112-treated animal where no obvious demyelination is observed. The boxed-insets of panel A and D are magnified 10× in panel G and H, respectively. FIG. 3. Profiling and quantification of T cell subset infiltrates in the spinal cords of animals on 21 days post-immunization that were treated with or without COG 112. Single-cell suspensions of spinal cord were stained with anti-CD3, CD4, and CD8 mAbs. Frequency of CD3+CD45+ cytometry (T cell) is represented in control (A) and COG112-treated (C) animals. Frequency of CD4+ and CD8+ T cells is represented in saline control (B) and COG 112-treated (D) mice. Total cell number for each of the specific cell surface markers is calculated and expressed as number per spinal cord (E). […] C57BL/6J mice were first immunized with MOG to create an EAE model. […] One of the pathological hallmarks of MS is extensive demyelination of the myelin sheath surrounding neurons accompanied by massive infiltration of peripheral leukocytes into the brain and the spinal cord, all of which contribute to the clinical manifestations of neurological disability. We further examined the effects of COG peptides on demyelination and leukocyte-influx into the spinal cords by Luxol Fast Blue (LFB) and Eosin staining. […] Panel G is a magnified view of the boxed area in A. […] Single-cell suspensions of spinal cord were stained with anti-CD3, CD4, and CD8 mAbs. As shown in FIGS. 3A & C, the frequency of CD3+ T cells in the spinal cords of mice treated with COG 112 was reduced as compared to vehicle controls on dpi 21.

[3] = system: cuprizone-induced demyelination in corpus callosum; test: Cuprizone-induced demyelination model; type: in vivo, C57BL/6J male mice
Protocol: FIG. 6. COG 112 promotes remyelination of the corpus callosum in a cuprizone model of demyelination. C57BL/6J male mice were fed with 0.2% cuprizone-containing diet for 5 weeks to induce complete demyelination in the corpus callosum. Starting from week 6, cuprizone was removed and the animals were treated with either vehicle or COG 112 (1 mg/kg) by i.p. injection three times a week for 4 weeks. Myelination in corpus callosum was evaluated on a scale from 0 to 3 after staining brain sections with Luxol Fast Blue (LFB). The data were collected from 4 animals of each group and 2 sections from each animal. A non-parametric Mann-Whitney test was used to compare differences between groups. Panels A and B (100×) are representative pictures of LFB-stained sections from vehicle- and COG 112-treated animals, respectively. Panels C and D (400×) are representative sections labeled with anti-GST-π-FITC antibody (marker for mature oligodendrocytes) from vehicle- and COG 112-treated animals, respectively.
In an EAE model, treatment with COG 112 reduced demyelination in the spinal cord (Example 1). Therefore, we tested the effect of COG peptides on remyelination in a cuprizone-induced demyelination model. C57BL/6J male mice were fed with 0.2% cuprizone-containing mouse chow for 5 weeks to cause demyelination. […]

[4] = 45 hours after LPS+IFN-γ, dose-dependent suppression

Compound | suppression of IL-6 ([1]; 5 μM, 45 hours after LPS+IFN-γ) | suppression of TNF-α ([1]; 5 μM, 45 hours after LPS+IFN-γ) | inhibition of NO release ([1]; 5 μM) | NOS2 expression (real-time PCR) [1] | maximal severity of disability [2] | progress of the disease (clinical score) [2] | burden of disability (area under curve of clinical score) [2] | demyelination and infiltration of peripheral mononuclear cells in spinal cord [2] | mice exhibiting complete remission [2] | LFB staining of myelin within corpus callosum ([3]; 1 mg/kg i.p. three times a week for 4 weeks after 5 weeks cuprizone) | GST-π+ cells (mature oligodendrocytes) within the corpus callosum ([3]; 1 mg/kg i.p. three times a week for 4 weeks, vs vehicle) | concentration giving complete inhibition of IL-6 levels [1, 4] | concentration giving complete inhibition of TNF-α levels [1, 4] | CD4+ T cell infiltration into the spinal cord ([2]; dpi 21, vs vehicle) | frequency of CD3+ T cells in the spinal cord ([2]; dpi 21, vs vehicle) | number of CD8+ T cells in the spinal cord ([2]; dpi 21, vs vehicle)
CC(=O)N[C@@H](CC(C)C)C(=O)N[C@@H](CCCNC(=N)N)C(=O)N[C@H](C(=O)N[C@@H](CCCNC(=N)N)C(=O)N[C@@H](CC(C)C)C(=O)N[C@@H](C)C(=O)N[C@@H](CO)C(=O)N[C@@H](Cc1c[nH]cn1)C(=O)N[C@@H](CC(C)C)C(=O)N[C@@H](CCCNC(=N)N)C(=O)N[C@@H](CCCCN)C(=O)N[C@@H](CC(C)C)C(=O)N[C@@H](CCCNC(=N)N)C(=O)N[C@@H](CCCCN)C(=O)N[C@@H](CCCNC(=N)N)C(=O)N[C@@H](CC(C)C)C(=O)N[C@@H](CC(C)C)C(N)=O)C(C)C [COG 133] | only moderate, yet statistically significant, suppression | only moderate, yet statistically significant, suppression | about 37% | affect NOS2 expression | significantly reduced the maximal severity of disability | significantly slowed the deleterious progress of the disease | significantly reduced the burden of disability | greatly reduced | 50% |  |  |  |  |  |  | 
Ac-RQIKIWFQNRRMKWKKCLRVRLASHLRKLRKRLL-NH2 [COG 112] |  |  | completely inhibited | more potent effect than COG 133 | significantly reduced the maximal severity of disability | significantly slowed the deleterious progress of the disease | significantly reduced the burden of disability | greatly reduced | 71% | significantly increased | Significantly more | about 5 μM | about 5 μM | significantly reduced | reduced | no significant difference

Reference: US8629242B2, “Methods of inhibiting calcineurin with ApoE analogs” (Cognosci, Inc., priority 2007, dated 2014)
